In PubChem BioAssay (NCI):
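A five-concentration, 48-hour dose response in 96-well plates underlies each endpoint, interpolated linearly between surrounding concentrations. TGI denotes the concentration required for complete inhibition of growth.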

Columns and labels:
Experiment in all cases: NCI tumour cell line growth inhibition, 48 h
HOP-62 NSCLC = tested on: HOP-62 NSCLC
HT29 colon = tested on: HT29 colon
MALME-3M melanoma = tested on: MALME-3M melanoma
MOLT-4 leukemia = tested on: MOLT-4 leukemia
OVCAR-5 ovarian = tested on: OVCAR-5 ovarian
OVCAR-8 ovarian = tested on: OVCAR-8 ovarian
SNB-19 CNS = tested on: SNB-19 CNS
SR leukemia = tested on: SR leukemia
UACC-62 melanoma = tested on: UACC-62 melanoma
MCF7 breast = tested on: MCF7 breast

Row | SMILES | TGI (HOP-62 NSCLC) [µM] | TGI (HT29 colon) [µM] | TGI (MALME-3M melanoma) [µM] | TGI (MOLT-4 leukemia) [µM] | TGI (OVCAR-5 ovarian) [µM] | TGI (OVCAR-8 ovarian) [µM] | TGI (SNB-19 CNS) [µM] | TGI (SR leukemia) [µM] | TGI (UACC-62 melanoma) [µM] | TGI (MCF7 breast) [µM]
1 | COc1ccc(-c2cc(=O)c3cc(OC)ccc3[nH]2)cc1 | > 100 | > 100 | > 100 | > 100 | > 100 | > 100 | > 100 | > 100 | > 100 | 
2 | Cc1cc(/C=C/c2cc[n+](C)c3ccccc23)c(O)c2ncccc12 | 15 | 14.6 | 12.4 | 7.47 | 16 | 16.1 | 20.8 | 4.3 | 9.19 | 
3 | COc1cc(/C=N/n2c(-c3ccccc3)nn(C(C)=O)c2=O)cc(OC)c1OC | > 100 | > 44.3 | > 46.6 | > 52.7 | > 92.6 | > 82.2 | > 52.3 |  | 31.4 | > 37.9
4 | COc1ccccc1-c1cc(=O)c2cc3c(cc2[nH]1)OCO3 | > 100 | > 100 | > 100 | > 100 |  | > 100 | > 100 | > 100 | > 100 | 
5 | Cc1c(N2CCN(C)CC2)nc2ccc(Cl)cc2c1-c1ccccc1 | 36.6 | 27.7 | 35.7 | > 10 |  | 31.8 | 66.2 | 39.2 | 30.3 | 
6 | N#Cc1c(-c2ccc(Cl)cc2)[nH]c(=O)n(C2OC(CO)C(O)C(O)C2O)c1=O (configuration not stated) | > 100 | > 100 |  | > 100 | > 100 | > 100 | > 100 |  | > 100 | > 100
7 | C/C(CC(O)(/C=N/O)c1ccccc1)=N/O (configuration not stated) | > 100 | > 100 | > 100 | > 100 | > 100 | > 100 | > 100 | > 100 |  | > 100
8 | N#CC(Cc1ccccc1)N(CCC1=CCCCC1)Cc1ccccc1 (configuration not stated) | > 100 | > 100 | > 100 | 90.6 | > 100 | > 100 | > 100 |  | > 100 | > 100
9 | CSc1nc(NC2OC(COC(C)=O)C(OC(C)=O)C(OC(C)=O)C2OC(C)=O)c2c(n1)OCC2=O (configuration not stated) | > 100 | > 100 | > 100 | > 100 | > 100 | > 100 | > 100 | > 100 | > 100 | 
10 | CC(=O)Nc1c(C)cc2c(nc3n2CCC3OC(C)=O)c1[N+](=O)[O-] (configuration not stated) |  | > 100 | > 100 | > 100 | > 100 | > 100 | > 100 | > 100 | > 100 | > 100
11 | CN1C(=O)C2(C=CC(O)CC2)c2ccccc21 (configuration not stated) | > 100 | > 100 |  | > 100 | > 100 | > 100 | > 100 | > 100 | > 100 | > 100
12 | O=c1c2cc3c(=O)n4c(cc(-c5ccccc5)c5cc(Cl)ccc54)nc3cc2nc2cc(-c3ccccc3)c3cc(Cl)ccc3n12 | > 100 | > 100 |  | > 100 | > 100 | > 100 | > 100 | > 100 | > 100 | > 100
13 | Cc1cc(Cc2cc(C)c(NC(=O)C(=O)C3CCC4=C(SC5C=CC=CC5N4)C3=O)c(C(C)C)c2)cc(C(C)C)c1NC(=O)C(=O)C1CCC2=C(SC3C=CC=CC3N2)C1=O (configuration not stated) | > 100 | > 100 |  | > 100 | > 100 | > 100 |  | > 100 | > 100 | > 100
14 | Cn1c(=O)c2c(nc3n2CCCC(=O)N3CC(O)CCl)n(C)c1=O (configuration not stated) | > 100 | > 100 |  | > 100 | > 100 | > 100 | > 100 | > 100 | > 100 | > 100
15 | NC(=O)Cc1nc2c(N)ncnc2n1C1OC(CO)C(O)C1O (configuration not stated) | > 100 | > 100 | > 100 | > 100 |  | > 100 | > 100 | > 100 | > 100 | > 100
16 | CC(C)NC(=O)OCc1c(CO)c2c(n1C)-c1ccccc1CC2 | > 93.3 | 54.5 | > 31.6 | 48.9 | > 100 | 57.6 | > 100 |  | 36.6 | > 100
17 | CCOC(=O)C(Cc1ccc(OC(=O)c2ccc(OC)cc2)cc1)NC(=O)C(F)(F)F (configuration not stated) | > 100 | > 100 | > 100 | > 100 | > 100 | > 100 | > 100 |  | > 100 | > 100
18 | Cc1ccc(/C(O)=C/C(=O)C(=O)NC23CC4CC(CC(C4)C2)C3)cc1 | > 10 | > 10 | > 10 | > 10 |  | > 10 |  | > 10 | > 10 | > 10
19 | COc1ccc(/C(Cl)=C(\C=N/O)c2ccc(OC)c(OC)c2)cc1OC | > 100 | > 100 | > 100 | > 100 | > 100 | > 100 | > 100 | > 100 | > 100 | 
20 | O=c1[nH]nc(-c2ccccc2)n1/N=C/c1cccs1 | > 100 | > 100 | > 100 | > 100 | > 100 | > 100 | > 100 |  | > 100 | > 100
21 | CC(C)C(=O)Nc1cc(C(F)(F)F)ccc1[N+](=O)[O-] | > 100 | > 100 | > 100 | > 100 | > 100 | > 100 | > 100 |  | > 100 | > 100
22 | NC(=O)NCCCC(NC(=O)OCCCCCCn1ccc(=O)[nH]c1=O)C(=O)O (configuration not stated) | > 100 | > 100 |  | > 100 | > 100 | > 100 | > 100 | > 100 | > 100 | > 100
23 | COc1ccc(CCCNC(=O)c2cc(OC)c(OC)cc2CCO)cc1OC | > 100 | > 100 |  | > 100 | > 100 | > 100 | > 100 | > 100 | > 100 | > 100

Row | SMILES | TGI (HOP-62 NSCLC) [µM] | TGI (HT29 colon) [µM] | TGI (MALME-3M melanoma) [µM] | TGI (MOLT-4 leukemia) [µM] | TGI (OVCAR-5 ovarian) [µM] | TGI (OVCAR-8 ovarian) [µM] | TGI (SNB-19 CNS) [µM] | TGI (SR leukemia) [µM] | TGI (UACC-62 melanoma) [µM] | TGI (MCF7 breast) [µM]
24 | O=[N+]([O-])C(=C(N1CCOCC1)N1CCOCC1)/C(Cl)=C(\Cl)Br | > 100 | 44.9 | 30.5 | 33.9 | 32.4 | 64 | > 100 | 37.1 |  | 
25 | O=c1[nH]nc(Cc2c[nH]c3ccccc23)o1 | > 100 | > 100 | > 100 | > 100 | > 100 | > 100 | > 100 |  | > 100 | > 100
26 | CCCCCCCCCCCCCCCCCCNC(=S)/N=C\C1=C(O)c2ccccc2C1=O | 22.2 | 25 | 28.1 | 16.5 | 26.9 | 32 | 35.9 |  |  | 29.5
27 | N#Cc1c(N2CCC(O)C2)c2ccccc2n2c1nc1ccccc12 (configuration not stated) | 46.6 | > 100 | > 100 | > 100 | > 100 | > 100 | > 100 |  | > 100 | > 100
28 | COc1ccc(/C=C2\CCS(=O)(=O)c3ccccc3C2=O)cc1 | > 100 | 35.9 |  | 65.2 | > 100 | 53.4 | 70.6 | 40.5 | 42.4 | > 100
29 | COc1cc(C2c3cc4c(cc3OC(NNS(=O)(=O)c3ccc(C)cc3)C2C)OCO4)cc(OC)c1O (configuration not stated) | 39.4 | 49.6 | 25 | 49.5 | > 100 | > 100 | 56.4 |  | 40.9 | 36.1
30 | CC1SCc2nc3ccccc3n21 (configuration not stated) | > 100 | > 100 | > 100 | > 100 | > 100 | > 100 | > 100 |  | > 100 | > 100
31 | CC(=O)Nc1ccc2c3c(cc(O)c2c1)N(C(=O)CCCCCCC(=O)N1CC(CCl)c2c1cc(O)c1cc(NC(C)=O)ccc21)CC3CCl (configuration not stated) |  | > 100 | 0.0233 |  | 0.243 | 0.346 | 0.913 |  | 0.013 | 0.0472
32 | O=C1C(=O)N(c2cccc(C(F)(F)F)c2)C(=S)N1c1ccccc1 | > 100 | > 100 | > 100 | > 100 | 80.5 | > 100 | > 100 | > 100 | 31.3 | 
33 | O=C(Nc1ccc2[nH]c(C(=O)N3CC(CCl)c4c3cc([N+](=O)[O-])c3ccccc43)cc2c1)Nc1ccc2[nH]c(C(=O)N3CC(CCl)c4c3cc([N+](=O)[O-])c3ccccc43)cc2c1 (configuration not stated) | > 100 |  | > 100 |  | > 100 |  | > 100 |  | > 100 | > 100
34 | NCCCC[C@H](N)C(=O)Nc1ccc(-c2nc3ccccc3s2)cc1 | 62 | 30.1 | 34.9 | 31.2 | 33.2 | 40.1 | 32.3 | 36.2 | 59.7 | 
35 | [N-]=[N+]=NC(c1cn(C2CC(O)C(CO)O2)c(=O)[nH]c1=O)C(Cl)I (configuration not stated) | > 100 | > 100 |  | > 100 | > 100 | > 100 | > 100 |  | > 100 | > 100
36 | COC1C(O)C(n2ncc3c(SC)nc(SC)nc32)OC1C(O)CO (configuration not stated) | > 100 | > 100 | > 100 | > 100 | > 100 | > 100 | > 100 |  | > 100 | > 100
37 | CC1=C(O)C(=O)C2C(=O)C1C1Cc3ccccc3C21 (configuration not stated) | > 100 | > 100 | > 100 | > 100 | > 100 | > 100 | > 100 | > 100 | > 100 | 
38 | CC(C)[C@H](NC(=O)[C@H](N)Cc1ccc(N(CCCl)CCCl)cc1)C(=O)O | > 100 | > 100 | > 100 | > 100 | > 100 | > 100 | > 100 |  | > 100 | > 100
39 | CCOc1ccc(N/C(=C(/C(Cl)=C(/Cl)N2CCCCC2)[N+](=O)[O-])n2nnc3ccccc32)cc1 | 42.6 |  | 39.6 | > 100 | 32.5 |  | 44 |  | 31.6 | 39.4
40 | Cc1c2c(c(O)c3c(O)cccc13)C(=O)C1(O)C(O)=C(C(=O)NCNc3ccc(C(N)=O)cn3)C(=O)C(N(C)C)C1C2 (configuration not stated) | > 100 | > 100 | > 100 | 9.41 | 34.2 | 35.5 |  | 9.53 | 9.59 | > 100
41 | OC(c1ccc(C(F)(F)F)cc1)C(F)(F)c1nc2ccccc2o1 (configuration not stated) | > 100 | > 100 |  | > 100 |  | > 100 | > 100 | > 100 | > 100 | > 100
42 | CC1(C)OC(=O)N(c2ccccc2)C12C=Cc1cccc([N+](=O)[O-])c1O2 (configuration not stated) | > 100 | > 100 |  | 74.1 | > 100 | > 100 | > 100 | 50.2 | > 100 | > 100
43 | O=C(O)CCSCc1ccccc1 | > 100 | > 100 | > 100 | > 100 | > 100 | > 100 | > 100 |  | > 100 | > 100
44 | COC(O)C(=O)c1ccc2c(c1)CC1(C2)Cc2cc3c(cc2C1=O)CCC3 (configuration not stated) | 38.8 | 42.3 | 36.1 | 64 | 52.3 |  | 34.5 |  | 34 | 39.6
45 | O=C1c2ccccc2-c2nnc3c(c21)-c1ccccc1C3 |  | > 100 | > 100 | 80.8 | > 100 | > 100 | > 100 | > 100 | > 100 | > 100
46 | Cc1ccc(S(=O)(=O)Oc2nc3ccccc3nc2OS(=O)(=O)c2ccc(C)cc2)cc1 |  | > 100 | 35 | > 100 | > 100 | > 100 | > 100 | > 100 | > 100 | > 100
